Reference: patent publication US8912236B2 (Alcon Research, Ltd., priority 2009, dated 2014)

Tested on: FGFR
Assay: Kinase inhibition, cell-free enzymatic assay
Assay type: biochemical
Details: 1 mM ATP

IC50: > 12.5 µM
Structure (SMILES): Cc1ccc(F)c(NC(=O)Nc2ccc(-c3cccc4[nH]nc(N)c34)cc2)c1 [RTK Inhibitor, N-[4-(3-amino-1H-indazol-4-yl)phenyl]-N′-(2-fluoro-5-methylphenyl) urea]
